Legend:
[1] = target: T1, Sodium- and chloride-dependent glycine transporter 1 (Homo sapiens, UniProt P48067); test: Inhibition of [3H]glycine uptake at GlyT1
T1 sequence (P48067 whole entry): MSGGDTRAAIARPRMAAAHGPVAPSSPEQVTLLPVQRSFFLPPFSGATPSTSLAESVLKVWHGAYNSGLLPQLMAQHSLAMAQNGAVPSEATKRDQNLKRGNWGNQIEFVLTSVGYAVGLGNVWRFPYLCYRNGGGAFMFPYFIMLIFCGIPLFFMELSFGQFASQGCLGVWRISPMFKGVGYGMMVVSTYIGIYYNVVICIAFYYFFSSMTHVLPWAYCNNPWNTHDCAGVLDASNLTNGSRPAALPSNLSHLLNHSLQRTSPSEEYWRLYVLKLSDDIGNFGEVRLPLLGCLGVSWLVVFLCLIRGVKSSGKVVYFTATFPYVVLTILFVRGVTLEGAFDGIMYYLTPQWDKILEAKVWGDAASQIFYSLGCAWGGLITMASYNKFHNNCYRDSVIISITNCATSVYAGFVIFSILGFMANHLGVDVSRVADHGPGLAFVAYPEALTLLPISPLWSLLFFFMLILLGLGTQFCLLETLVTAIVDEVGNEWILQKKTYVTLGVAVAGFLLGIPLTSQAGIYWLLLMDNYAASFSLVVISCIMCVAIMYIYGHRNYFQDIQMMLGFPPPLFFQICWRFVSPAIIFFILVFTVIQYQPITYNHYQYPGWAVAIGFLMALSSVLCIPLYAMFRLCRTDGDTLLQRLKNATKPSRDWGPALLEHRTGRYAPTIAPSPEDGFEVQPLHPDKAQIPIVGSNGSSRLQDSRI

[2] = target: T2, Sodium- and chloride-dependent glycine transporter 2 (Homo sapiens, UniProt Q9Y345); test: Inhibition of [3H]glycine uptake at GlyT2
T2 sequence (Q9Y345 whole entry): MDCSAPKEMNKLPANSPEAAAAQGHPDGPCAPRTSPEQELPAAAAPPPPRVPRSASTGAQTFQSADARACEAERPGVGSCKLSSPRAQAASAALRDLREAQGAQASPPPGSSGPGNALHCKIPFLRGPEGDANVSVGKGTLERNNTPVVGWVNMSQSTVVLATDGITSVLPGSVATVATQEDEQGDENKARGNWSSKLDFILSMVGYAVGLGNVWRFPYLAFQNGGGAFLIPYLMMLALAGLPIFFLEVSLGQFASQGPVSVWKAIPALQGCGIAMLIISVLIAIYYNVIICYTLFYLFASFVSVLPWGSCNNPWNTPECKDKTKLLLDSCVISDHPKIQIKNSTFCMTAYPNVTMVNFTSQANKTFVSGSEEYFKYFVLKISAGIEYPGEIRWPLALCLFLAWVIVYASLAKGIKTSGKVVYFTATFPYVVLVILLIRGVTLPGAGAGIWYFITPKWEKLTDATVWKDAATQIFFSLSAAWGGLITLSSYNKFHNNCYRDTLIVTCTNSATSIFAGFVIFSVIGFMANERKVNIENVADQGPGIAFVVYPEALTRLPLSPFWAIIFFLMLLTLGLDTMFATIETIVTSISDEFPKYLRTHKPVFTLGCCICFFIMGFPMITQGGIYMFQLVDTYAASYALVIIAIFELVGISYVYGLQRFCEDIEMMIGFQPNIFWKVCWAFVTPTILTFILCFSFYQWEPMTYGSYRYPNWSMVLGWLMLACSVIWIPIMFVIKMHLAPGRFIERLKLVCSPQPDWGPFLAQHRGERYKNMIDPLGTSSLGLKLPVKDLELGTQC

in vitro [3] = conditions: human, microsomes, CL
Description: Intrinsic clearance in human microsome

in vitro [4] = conditions: mouse, microsomes, CL
Description: Intrinsic clearance in mouse microsome

in vitro [5] = conditions: human, microsomes, Max Achievable Bioavailability
Description: Maximum achievable bioavailability in human microsome

in vitro [6] = conditions: mouse, microsomes, Max Achievable Bioavailability
Description: Maximum achievable bioavailability in mouse microsome

Row | SMILES | EC50 [1] [µM] | further results
1 | COc1cccc(C2(N3CCC4(CC3)C(=O)NCC4c3ccccc3)CCCCC2)c1 (single isomer, unassigned; diastereomer 2) | 26.2 | –
2 | O=C1NCC(c2ccccc2)C12CCN(C1(c3cccc(F)c3)CCCCC1)CC2 (single isomer, unassigned; diastereomer 1) | 0.423 | EC50 [2]: > 30 µM
3 | O=C1NCC(c2ccc(F)cc2)C12CCN(C1(c3ccc(F)cc3)CCCCC1)CC2 (racemic) | – | EC50 [2]: > 30 µM
4 | O=C1NCC(c2ccccc2)C12CCN(C1(c3ccccc3)CCOCC1)CC2 (single isomer, unassigned; diastereomer 4) | 0.525 | –
5 | Cc1cccc(C2(N3CCC4(CC3)C(=O)NCC4c3ccc(F)cc3)CCCCC2)c1 (single isomer, unassigned; diastereomer 1) | 4 | –
6 | O=C1NCC(c2ccc(F)cc2)C12CCN(C1(c3cccc(OC(F)(F)F)c3)CCCCC1)CC2 (single isomer, unassigned; diastereomer 2) | 21.5 | –
7 | O=C1NCC(c2ccccc2)C12CCN(C1(c3ccc(OC(F)(F)F)cc3)CCCCC1)CC2 (racemic) | 4.56 | –
8 | O=C1NCC(c2ccc(F)cc2)C12CCN(C1(c3ccsc3)CCCCC1)CC2 (single isomer, unassigned; diastereomer 1) | 0.213 | –
9 | Cc1ccc(C2(N3CCC4(CC3)C(=O)NCC4c3ccc(F)cc3)CCCCC2)cc1 (single isomer, unassigned; diastereomer 2) | 0.419 | –
10 | Cc1cccc(C2(N3CCC4(CC3)C(=O)NCC4c3ccc(F)cc3)CCCCC2)c1 (racemic) | 0.563 | EC50 [2]: > 30 µM
11 | O=C1NCC(c2ccccc2)C12CCN(C1(C3CCCCC3)CCCCC1)CC2 (racemic) | 15.2 | –
12 | N#Cc1ccc(C2(N3CCC4(CC3)C(=O)NCC4c3ccccc3)CCCCC2)cc1 (stereo in doubt) | 16 | –
13 | Cc1ccc(C2(N3CCC4(CC3)C(=O)NCC4c3ccc(F)cc3)CCCCC2)cc1 (single isomer, unassigned; diastereomer 1) | 1.47 | –
14 | COc1cccc(C2(N3CCC4(CC3)C(=O)NCC4c3ccccc3)CCCCC2)c1 (single isomer, unassigned; diastereomer 1) | 5.61 | –
15 | O=C1NCC(c2ccccc2)C12CCN(C1(c3ccc(Cl)cc3)CCCCC1)CC2 (single isomer, unassigned; diastereomer 1) | – | EC50 [2]: > 30 µM
16 | Cc1ccc(C2(N3CCC4(CC3)C(=O)NCC4c3ccccc3)CCCCC2)cc1 (single isomer, unassigned; diastereomer 2) | 0.48 | EC50 [2]: > 30 µM
17 | Cl.O=C1NCC(c2ccc(F)cc2)C12CCN(C1(c3ccsc3)CCCCC1)CC2 (racemic) | 0.099 | microsomal CLint (in vitro [3]): 4 µL/min/mg; microsomal CLint (in vitro [4]): 39 µL/min/mg; Fh (in vitro [5]): 78%; Fh (in vitro [6]): 45%
18 | O=C1NCC(c2ccc(F)cc2)C12CCN(C1(c3cccc(OC(F)(F)F)c3)CCCCC1)CC2 (stereo in doubt) | 16.7 | –
19 | O=C1NCC(c2ccccc2)C12CCN(C1(C3CC3)CCCCC1)CC2 (racemic) | > 30 | –
20 | O=C1NCC(c2ccc(F)cc2)C12CCN(C1(c3ccc(F)cc3)CCC1)CC2 (configuration not stated) | > 30 | –
21 | O=C1NCC(c2ccccc2)C12CCN(C1(c3ccc(Cl)cc3)CCCCC1)CC2 (single isomer, unassigned; diastereomer 2) | – | EC50 [2]: > 30 µM
22 | Cc1ccc(C2CNC(=O)C23CCN(C2(c4ccccc4)CCCCC2)CC3)cc1 (racemic) | 0.139 | –
23 | CCC1(N2CCC3(CC2)C(=O)NCC3c2ccc(F)cc2)CCCCC1 (racemic) | 1.47 | –
24 | O=C1NCC(c2ccccc2)C12CCN(C1(c3ccccc3)CCCCC1)CC2 (single isomer, unassigned; diastereomer 2) | – | EC50 [2]: > 30 µM
25 | CCCC1CNC(=O)C12CCN(C1(c3cccs3)CCCCC1)CC2 (racemic) | 0.229 | –
26 | Cc1cccc(C2(N3CCC4(CC3)C(=O)NCC4c3ccc(F)cc3)CCCCC2)c1 (single isomer, unassigned; diastereomer 2) | 0.949 | EC50 [2]: > 30 µM

Row | SMILES | EC50 [1] [µM] | further results
27 | O=C1NCC(c2ccc(C(F)(F)F)cc2)C12CCN(C1(c3ccc(F)cc3)CCCCC1)CC2 (racemic) | 0.433 | –
28 | O=C1NCC(c2ccc(F)cc2)C12CCN(C1(c3cccc(F)c3)CCCCC1)CC2 (racemic) | 0.393 | EC50 [2]: > 30 µM
29 | O=C1NCC(c2ccccc2)C12CCN(C1(c3ccccc3)CCOCC1)CC2 (stereo in doubt; form 2) | > 30 | –
30 | O=C1NCC(c2ccccc2)C12CCN(C1(c3ccc(C(F)(F)F)cc3)CCCCC1)CC2 (single isomer, unassigned; diastereomer 1) | 1.21 | –
31 | N#Cc1cccc(C2(N3CCC4(CC3)C(=O)NCC4c3ccc(F)cc3)CCCCC2)c1 (racemic) | > 30 | –
32 | O=C1NCC(c2ccccc2)C12CCN(C1(c3ccsc3)CCCCC1)CC2 (racemic) | 0.682 | –
33 | O=C1NCC(c2ccccc2)C12CCN(C1(c3ccc(C(F)(F)F)cc3)CCCCC1)CC2 (single isomer, unassigned; diastereomer 2) | 6.97 | –
34 | N#Cc1ccc(C2(N3CCC4(CC3)C(=O)NCC4c3ccccc3)CCCCC2)cc1 (single isomer, unassigned; diastereomer 1) | > 30 | –
35 | O=C1NCC(c2ccccc2)C12CCN(C1(c3ccccc3)CCOCC1)CC2 (single isomer, unassigned; diastereomer 1) | 3.66 | –
36 | CC(C)C1(N2CCC3(CC2)C(=O)NCC3c2ccc(F)cc2)CCCCC1 (racemic) | 0.787 | –
37 | O=C1NCC(c2ccc(F)cc2)C12CCN(C1(C3CC3)CCCCC1)CC2 (racemic) | > 30 | –
38 | O=C1NCC(c2ccccc2)C12CCN(C1(c3cccs3)CCCCC1)CC2 (racemic) | 0.147 | –
39 | O=C1NCC(c2ccccc2)C12CCN(C1(c3ccccc3)CCCCC1)CC2 (single isomer, unassigned; diastereomer 1) | – | EC50 [2]: > 30 µM
40 | O=C1NCC(c2ccc(F)cc2)C12CCN(C1(c3ccsc3)CCCCC1)CC2 (stereo in doubt) | 0.099 | –
41 | O=C1NCC(c2ccccc2)C12CCN(C1(c3ccccc3)CCOCC1)CC2 (stereo in doubt; form 1) | 7.29 | –
42 | Cc1ccccc1C1(N2CCC3(CC2)C(=O)NCC3c2ccc(F)cc2)CCCCC1 (racemic) | 0.35 | EC50 [2]: > 30 µM
43 | Cl.O=C1NCC(c2ccc(F)cc2)C12CCN(C1(c3cccs3)CCCCC1)CC2 (racemic) | – | microsomal CLint (in vitro [3]): 9 µL/min/mg; microsomal CLint (in vitro [4]): 80 µL/min/mg; Fh (in vitro [5]): 64%; Fh (in vitro [6]): 28%
44 | CCCC1CNC(=O)C12CCN(C1(c3ccc(C)s3)CCCCC1)CC2 (racemic) | 0.113 | –
45 | Cc1ccc(C2CNC(=O)C23CCN(C2(c4ccc(F)cc4)CCCCC2)CC3)cc1 (racemic) | 0.073 | –
46 | Cc1ccc(C2(N3CCC4(CC3)C(=O)NCC4c3ccccc3)CCCCC2)cc1 (stereo in doubt) | 0.284 | EC50 [2]: > 30 µM
47 | F.O=C1NCC(c2ccc(F)cc2)C12CCN(C1(c3ccc(F)cc3)CCCCC1)CC2 (single isomer, unassigned; diastereomer 1) | – | Fh (in vitro [5]): 67%; EC50 [2]: > 30 µM; Fh (in vitro [6]): 46%
48 | CC(C)=CC1(N2CCC3(CC2)C(=O)NCC3c2ccccc2)CCCCC1 (racemic) | 0.979 | –
49 | O=C1NCC(c2ccccc2)C12CCN(C1(c3cccc(F)c3)CCCCC1)CC2 (single isomer, unassigned; diastereomer 2) | 0.684 | EC50 [2]: > 30 µM
50 | O=C1NCC(c2ccccc2)C12CCN(C1(C3CCCC3)CCCCC1)CC2 (racemic) | 6.29 | –
51 | CC(C)C1(N2CCC3(CC2)C(=O)NCC3c2ccccc2)CCCCC1 (racemic) | 0.97 | –
52 | CCCC1CNC(=O)C12CCN(C1(c3ccc(F)cc3)CCCCC1)CC2 (racemic) | – | microsomal CLint (in vitro [3]): 14 µL/min/mg; microsomal CLint (in vitro [4]): 24 µL/min/mg; Fh (in vitro [5]): 53%; Fh (in vitro [6]): 57%

Source: ChEMBL document CHEMBL1145308 (Bioorg Med Chem Lett, 2006)
